Read-outs that look alike come from different tables or passages of the source.
Test system: primary rat mixed cortical cells
Test: In vitro myelination assay (MBP positive myelin strands, fold myelin pixels above background)
Type: cell-based
Details: Rattus norvegicus; for fold induction at 1 µM: 1.0 μM compound; for fold induction at 10 µM: 10.0 μM compound
Procedure, shortened: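 Read-out is total MBP-positive myelin strand pixels per well, detected by custom ridge-tracing software and reported as fold over untreated baseline. Primary P1 rat mixed cortical cells received compound (1.0 or 10.0 μM) for 14 days, with medium half-replaced on days 6 and 10. Standard deviation was taken across all replicates.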

[1] = read-out: Fold myelin pixels above background relative to baseline of no added compound
[2] = relative to baseline of no added compound, read-out: Fold myelin pixels above background, 1.0 μM
[3] = relative to baseline of no added compound, read-out: Fold myelin pixels above background, 10.0 μM
[4] = relative to baseline of no added compound, read-out: Fold myelin pixels above background

SMILES | fold induction at 1 µM [2] | fold induction at 10 µM [3] | fold induction at 1 µM [4] | fold induction at 10 µM [4] | other results
Cc1cc(Nc2ncn(-c3cc(F)cc(F)c3)n2)c(F)c(N2CCN(CCO)CC2)c1 [Compound 1043, 2-[4-[3-[[1-(3,5-difluorophenyl)-1,2,4-triazol-3-yl]amino]-2-fluoro-5-methyl-phenyl]piperazin-1-yl]ethanol] |  |  |  |  | fold induction at 1 µM [1]: 10 to 100; fold induction at 10 µM [1]: ≤ 1
F[C@@H]1CCN(c2cc(Nc3ncn(-c4ccccc4)n3)cc(C3CC3)n2)C1 [Compound 296, 2-cyclopropyl-6-[(3R)-3-fluoropyrrolidin-1-yl]-N-(1-phenyl-1,2,4-triazol-3-yl)pyridin-4-amine] | 100 to 1000 | 10 to 100 |  |  | 
Cc1cc(Nc2ncn(-c3cccnc3)n2)cc(N2CC3(C2)CN(C(C)C)C3)c1 [Compound 966, N-[3-(2-isopropyl-2,6-diazaspiro[3.3]heptan-6-yl)-5-methyl-phenyl]-1-(3-pyridyl)-1,2,4-triazol-3-amine] |  |  |  |  | fold induction at 1 µM [1]: 1 to 10; fold induction at 10 µM [1]: ≤ 1
Cc1cc(Nc2ncn(-c3ccnc(F)c3)n2)cc(N2CCCN(C3COC3)CC2)c1 [Compound 776, 1-(2-fluoro-4-pyridyl)-N-[3-methyl-5-[4-(oxetan-3-yl)-1,4-diazepan-1-yl]phenyl]-1,2,4-triazol-3-amine] |  |  | 10 to 100 | ≤ 1 | 
c1cnc(-n2cnc(Nc3cc(C4CC4)cc(N4CC(N5CCOCC5)C4)c3)n2)cn1 [Compound 539, N-[3-cyclopropyl-5-(3-morpholinoazetidin-1-yl)phenyl]-1-pyrazin-2-yl-1,2,4-triazol-3-amine] |  |  | 10 to 100 | 10 to 100 | 
Cc1cc(Nc2ncn(-c3ccccc3)n2)cc(N2CCN3CCC[C@@H]3C2)c1 [Compound 157, N-[3-[(8aR)-3,4,6,7,8,8a-hexahydro-1H-pyrrolo[1,2-a]pyrazin-2-yl]-5-methyl-phenyl]-1-phenyl-1,2,4-triazol-3-amine] | 1000 to 10000 | 1000 to 10000 |  |  | 
CCN1CCOC(CNc2cc(C)cc(Nc3ncn(-c4cc(F)cc(F)c4)n3)c2)C1 (centres unmarked) [Compound 893, N3-[1-(3,5-difluorophenyl)-1,2,4-triazol-3-yl]-N1-[(4-ethylmorpholin-2-yl)methyl]-5-methyl-benzene-1,3-diamine] |  |  |  |  | fold induction at 1 µM [1]: 1 to 10; fold induction at 10 µM [1]: ≤ 1
Cc1cc(NC2CCOC2)cc(Nc2ncn(-c3cc(F)cc(F)c3)n2)c1F (centres unmarked) [Compound 953, N3-[1-(3,5-difluorophenyl)-1,2,4-triazol-3-yl]-4-fluoro-5-methyl-N1-tetrahydrofuran-3-yl-benzene-1,3-diamine] |  |  |  |  | fold induction at 1 µM [1]: 1 to 10; fold induction at 10 µM [1]: 1 to 10
Cc1cc(Nc2ncn(-c3cc(F)cc(F)c3)n2)cc(C2CN(C3COC3)C(C)CO2)c1 (centres unmarked) [Compound 629, 1-(3,5-difluorophenyl)-N-[3-methyl-5-[5-methyl-4-(oxetan-3-yl)morpholin-2-yl]phenyl]-1,2,4-triazol-3-amine] |  |  | 10 to 100 | ≤ 1 | 
Cc1cc(Nc2ncn(-c3cc(F)cc(F)c3)n2)cc(NC2CCCCC2N2CCOCC2)c1 (centres unmarked) [Compound 939, N3-[1-(3,5-difluorophenyl)-1,2,4-triazol-3-yl]-5-methyl-N1-(2-morpholinocyclohexyl)benzene-1,3-diamine] |  |  |  |  | fold induction at 1 µM [1]: 1 to 10; fold induction at 10 µM [1]: ≤ 1
FC(F)c1cccc(-n2cnc(Nc3cc(C(F)(F)F)cc(N4CC(N5CCOCC5)C4)n3)n2)c1 [Compound 636, N-[1-[3-(difluoromethyl)phenyl]-1,2,4-triazol-3-yl]-6-(3-morpholinoazetidin-1-yl)-4-(trifluoromethyl)pyridin-2-amine] |  |  | 1 to 10 | 1 to 10 | 
CN1CCN(c2cc(Nc3ncn(-c4cc(F)cc(F)c4)n3)cc(C(F)(F)F)c2)CC1 [Compound 63, 1-(3,5-difluorophenyl)-N-[3-(4-methylpiperazin-1-yl)-5-(trifluoromethyl)phenyl]-1,2,4-triazol-3-amine] | 10 to 100 | 1 to 10 |  |  | 
CCc1cc(Nc2ncn(-c3cnccn3)n2)cc(N2CC(N3CCOCC3)C2)c1 [Compound 341, N-[3-ethyl-5-(3-morpholinoazetidin-1-yl)phenyl]-1-pyrazin-2-yl-1,2,4-triazol-3-amine] | ≤ 1 | 1 to 10 |  |  | 
Cc1cc(Nc2ncn(-c3cc(F)cc(F)c3)n2)cc(N2C[C@@H]3C[C@H]2CN3C2COC2)c1 [Compound 34, 1-(3,5-difluorophenyl)-N-[3-methyl-5-[(1S,4S)-2-(oxetan-3-yl)-2,5-diazabicyclo[2.2.1]heptan-5-yl]phenyl]-1,2,4-triazol-3-amine] | 100 to 1000 | ≤ 1 |  |  | 
CN(C)C1CCN(c2cc(F)cc(Nc3ncn(-c4cccc(F)c4)n3)c2)C1 (centres unmarked) [Compound 109, N-[3-[3-(dimethylamino)pyrrolidin-1-yl]-5-fluoro-phenyl]-1-(3-fluorophenyl)-1,2,4-triazol-3-amine] | 10 to 100 | ≤ 1 |  |  | 
Cc1cc(Nc2ncn(-c3cncnc3)n2)cc(N2CCN(C)CC2)c1 [Compound 381, N-[3-methyl-5-(4-methylpiperazin-1-yl)phenyl]-1-pyrimidin-5-yl-1,2,4-triazol-3-amine] | 1 to 10 | 100 to 1000 |  |  | 
Cc1cc(N2CC(N3CCOCC3)C2)cc(Nc2ncn(-c3cc(F)cc(F)c3)n2)c1F [Compound 870, 1-(3,5-difluorophenyl)-N-[2-fluoro-3-methyl-5-(3-morpholinoazetidin-1-yl)phenyl]-1,2,4-triazol-3-amine] |  |  |  |  | fold induction at 1 µM [1]: 1 to 10; fold induction at 10 µM [1]: 1 to 10
Cc1cc(Nc2ncn(-c3cc(F)cc(F)c3)n2)cc([C@H]2CCN(C3COC3)C[C@@H]2O)c1 (racemic) [Compound 282, (3R,4R)-4-[3-[[1-(3,5-difluorophenyl)-1,2,4-triazol-3-yl]amino]-5-methyl-phenyl]-1-(oxetan-3-yl)piperidin-3-ol; (3S,4S)-4-[3-[[1-(3,5-difluorophenyl)-1,2,4-triazol-3-yl]amino]-5-methyl-phenyl]-1-(oxetan-3-yl)piperidin-3-ol] | 10 to 100 | 10 to 100 |  |  | 
Clc1cc(Nc2ncn(-c3ccccn3)n2)cc(N2CC(N3CCOCC3)C2)c1 [Compound 785, N-[3-chloro-5-(3-morpholinoazetidin-1-yl)phenyl]-1-(2-pyridyl)-1,2,4-triazol-3-amine] |  |  | 10 to 100 | 100 to 1000 | 
Cc1cc(Nc2ncn(-c3ccccc3)n2)cc(N2CC(C)N(C)CC2C)c1 (centres unmarked) [Compound 419, N-[3-methyl-5-(2,4,5-trimethylpiperazin-1-yl)phenyl]-1-phenyl-1,2,4-triazol-3-amine] |  |  | 10 to 100 | ≤ 1 | 
Cc1cc(Nc2ncn(-c3ccc(F)c(F)c3)n2)cc(N2CCOCC2)n1 [Compound 265, N-[1-(3,4-difluorophenyl)-1,2,4-triazol-3-yl]-2-methyl-6-morpholino-pyridin-4-amine] | 100 to 1000 | 100 to 1000 |  |  | 
Cc1cc(Nc2ncn(-c3cc(F)cc(F)c3)n2)cc(O[C@H]2CCCN(C3COC3)C2)c1 (single isomer, unassigned) [Compound 700] |  |  | 10 to 100 | ≤ 1 | 

— patent US10766869B2, “Triazoles for the treatment of demyelinating dieases” (Vertex Pharmaceuticals Incorporated, priority 2015, dated 2020)
